# Where “and” joins values, the source holds several entries; their conditions need not be identical. Equal entries are not always repeated. Where two headings read alike, the source gives them in different places.
# Legend:
# wild-type seHAS = assay: Utilization of UDP-GlcUA and UDP-GlcNAc by wild-type seHAS after NEM or sodium arsenite treatment; format: biochemical, Streptococcus equisimilis; details: membranes 4° C. 1 h with 5 mM NEM or 10 mM sodium arsenite
# Experimental: FIG. 3. Effect of NEM or sodium arsenite treatment on the utilization of UDP-GIcUA and UDP-GIcNAc by wild-type seHAS. E. coli membranes containing seHAS protein were incubated at 4° C. for 1 h in PBS containing 5 mM NEM or 10 mM Sodium Arsenite (SodArs), and the control membranes were incubated with PBS alone. Michaelis-Menten constants (Km) were calculated from the activities of seHAS at varying concentrations of UDP-GIcUA or UDP-GIcNAc.
# Modification of the protein by NEM could affect any one or several of the six discrete functions that HAS must perform in order to synthesize HA. In order to determine if one of the nucleotide-sugar binding sites was affected by NEM, we examined the UDP-GIcUA and UDP-GIcNAc saturation profiles for treated and untreated seHAS (FIG. 3 and Table III).
# (§1) E. coli SURE cells transformed with plasmids containing various seHAS mutants were grown in LB medium with vigorous shaking at 32° C. to A600 ˜0.8 and induced with 1 mM isopropyl-β-thiogalactoside for 3 h. Cells were harvested and membranes were prepared as described previously. The kinetic constants for HAS were determined at 37° C. in 100 μl of 50 mM sodium and potassium phosphate, pH 7.0, with 20 mM MgCl2, 1 mM DTE, 240 μM UDP-GIcUA, 0.7 μM UDP-[^14C]GIcUA and 0.6–1.0 mM UDP-GIcNAc. in 100 μl of 25 mM sodium and potassium phosphate, pH 7, containing 50 mM NaCl, 20 mM MgCl2, 1 mM dithiothreitol, 1 mM UDP-GIcUA, 0.68 μM UDP-GIcUA and 1 mM UDP-GIcNAc. Some assays also contained 0.1 mM EDTA and 20% glycerol (v/v). To initiate the enzyme reaction, ˜0.5–40 μg of membrane protein was added and the mixtures were gently shaken in a MicroMixer X-36 (Tiatec) at 30° C. for 1–2 h. Reactions were terminated by the addition of SDS to a final concentration of 2% (w/v). The incorporation of radioactive [^14C]GIcUA was determined by descending paper chromatography and the Km and Vmax values were determined as described by Tlapak-Simmons et al (1999b). Data were analyzed by the methods of Michaelis-Menton or Hill. Protein content was determined by the method of Bradford using bovine serum albumin as the standard. All Cys-mutant or sulfhydryl-treated seHAS samples were assayed in duplicate or triplicate using two or three independent membrane preparations. Results are presented as the mean±standard errors. All enzyme assays were performed under conditions that were linear with respect to time and protein concentration. None of the seHAS variant enzymes were unstable under the conditions employed.
# spHAS = biological target: T1, spHAS (Streptococcus pyogenes serotype M6, UniProt Q5X9A9); assay: Effect of sulfhydryl reagents on spHAS activity in E. coli membranes; format: biochemical; details: E. coli membranes with spHAS-H6, 4° C. 1 h, 5 mM NEM, 5 mM IAA, 0.5 mM 5,5′-dithiobis-(2-nitrobenzoic acid), 0.05 mM methylmethanethiosulfonate, 10 mM sodium arsenite
# T1 construct: made in house; host or cells: E. coli SURE cells (isolated membranes)
# T1 sequence (Q5X9A9 1-419): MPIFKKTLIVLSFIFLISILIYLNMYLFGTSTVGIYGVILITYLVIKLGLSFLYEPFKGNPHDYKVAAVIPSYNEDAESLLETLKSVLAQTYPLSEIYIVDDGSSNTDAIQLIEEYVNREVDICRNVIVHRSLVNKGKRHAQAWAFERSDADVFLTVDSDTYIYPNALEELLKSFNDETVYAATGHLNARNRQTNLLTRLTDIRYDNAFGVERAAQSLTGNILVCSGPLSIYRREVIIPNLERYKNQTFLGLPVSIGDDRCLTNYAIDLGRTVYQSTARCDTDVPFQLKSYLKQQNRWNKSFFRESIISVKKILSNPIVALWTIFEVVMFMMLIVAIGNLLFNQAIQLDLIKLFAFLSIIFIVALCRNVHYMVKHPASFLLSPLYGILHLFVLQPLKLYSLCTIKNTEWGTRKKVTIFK
# Experimental: (§2) SeHAS is the smallest HAS protein (417 amino acids) and contains four Cys residues. […] To explore the possible role of cysteines in the function of HAS, the activities of seHAS and spHAS were assayed in the presence of different sulfhydryl reagents (Table II). […] The inhibition of each HAS by NEM was examined in more detail with respect to time of incubation and NEM concentration (FIG. 2).
# as §1, with “Results are presented as the mean±standard errors.” left out, “concentration.” for “concentration. None of the seHAS variant enzymes were unstable under the conditions employed.”
# (§3) Stock solutions (10–100 mM) of NEM, IAA or other sulfhydryl reagents were made in PBS, pH 7.0. Suspensions of membranes containing seHAS or spHAS were incubated with 0–5 mM of the sulfhydryl reagent at 4° C. and the reactions were stopped by adding DTE to a final concentration of 10 mM. The membranes were then assayed for HAS activity as described above.
# seHAS = assay: Effect of sulfhydryl reagents on seHAS activity in E. coli membranes; format: biochemical, Streptococcus equisimilis; details: E. coli membranes with seHAS-H6, 4° C. 1 h, 5 mM NEM, 5 mM IAA, 0.5 mM 5,5′-dithiobis-(2-nitrobenzoic acid), 0.05 mM methylmethanethiosulfonate, 10 mM sodium arsenite
# Experimental: as §2
# as §1, with “Results are presented as the mean±standard errors.” left out, “concentration.” for “concentration. None of the seHAS variant enzymes were unstable under the conditions employed.”
# as §3
compound,measurement,setting,value
CCN1C(=O)C=CC1=O [N-ethylmaleimide],"Vmax of treated wild-type seHAS, UDP-GlcNAc",wild-type seHAS,7.3 ± 2.2 nmol/µg/h
same,"Vmax of treated wild-type seHAS, UDP-GlcUA",wild-type seHAS,7.3 ± 2.2 nmol/µg/h
same,Km,wild-type seHAS; read-out: Km for UDP-GlcNAc of treated wild-type seHAS,82 ± 17 µM
same,Km,wild-type seHAS; read-out: Km for UDP-GlcUA of treated wild-type seHAS,57 ± 5 µM
same,"Inhibition of HAS Activity (% relative to control), spHAS",spHAS,60 ± 3.5%
same,"Inhibition of HAS Activity (% relative to control), spHAS",spHAS; listed as NEM,60–70%
same,"Inhibition of HAS Activity (% relative to control), seHAS",seHAS,70 ± 4.8%
same,"Inhibition of HAS Activity (% relative to control), seHAS",seHAS; listed as NEM,~70% and 60–70%
